Reference: patent US20240262727A1, “METHOD FOR IMPROVING BIOLOGICAL NITROGEN REMOVAL EFFECT OF LOW-TEMPERATURE SEWAGE” (Sichuan University, priority 2023, published 2024)

Legend:
[1] = test system: biofilm / quorum quenching bacteria; experiment: Biofilm MBBR reactor at 22° C., microbial community structure; conditions: 100 μg/L
Experimental: The sludge was discharged on the 12th day after the biofilm was successfully formed on the filler. The C4-HSL with a concentration of 100 μg/L was added to the influent. The rest steps were the same as those in Example 5.
The high concentration of C4-HSL allowed the quorum quenching bacteria to grow at a suitable temperature (22±1° C.), stimulating quorum quenching and inhibiting the attachment and growth of microorganisms to the filler.

[2] = test system: activated sludge and biofilm phases; experiment: EPS and ATP of the activated sludge and biofilm phases of the MBBR
Experimental: The EPS concentration in the sludge phase was 46.12±4.8 mg/g·VSS, and the intracellular ATP was 1273.11±5.4 ngATP/mL; the EPS concentration in the biofilm phase was 53.34±3.7 mg/g. VSS, and the microbial activity concentration of a single filler was 20.67±0.22 ngATP/piece.

[3] = test system: microbial community of the activated sludge; experiment: High-throughput sequencing / metagenomics of SBR activated sludge (microbial community and functional genes); conditions: for relative content of Nakamurella (nitrifying bacteria): 17.46% without
Experimental: After the treatment effect was stable, high-throughput sequencing was conducted on the activated sludge to analyze a composition of the microbial community. […] The increased abundance of functional bacteria and functional genes in the activated sludge SBR reactor improved the nitrogen removal effect of this reactor.

activated sludge [4] = experiment: Activated sludge SBR reactor, biological nitrogen removal with added AHLs signal molecule
Experimental: A system to be treated was cooled to 10° C., and an activated sludge SBR reactor was adopted with an effective volume of 1 L and an MLSS of 4,000 mg/L.
Incoming influent: COD: 250 mg/L, ammonia-nitrogen concentration (NH4^+—N): 30 mg/L, TP: 1.5 mg/L, pH=7-8.
12 h was an operation cycle, including 2.5 h of anoxic phase, 8 h of aerobic phase, and 1.5 h of standing. The anoxic phase had dissolved oxygen (DO) maintained below 0.5 mg/L, and the aerobic phase had DO>2.5 mg/L.
An N-butanoyl-homoserine lactone stock solution with a concentration of 10 mg/L, which was added every 2 operation cycles following the influent.
This example differed from Example 1 in that the treatment system was cooled to 7° C., and after the operation was stable, the water temperature was further lowered to 4° C.

activated sludge [5] = experiment: as above; conditions: for MLSS lower than that of the control group (without C4-HSL added): 4° C.; for MLSS of the reactor lower than that of the control group (without C4-HSL): after stable operation
[6] = test system: activated sludge-biofilm composite system; experiment: Activated sludge-biofilm composite MBBR reactor at 6° C., pollutant removal efficiency; conditions: 100 μg/L, HRT 18 h
biofilm on the filler = experiment: Single biofilm MBBR at low temperature (sludge discharged on 18th day), pollutant removal and community structure
Experimental: The C4-HSL with a concentration of 100 μg/L was added to the influent. The rest steps were the same as those in Example 5.
The hydraulic retention time was 18 h, the rest steps were the same as those Example 1, and the COD removal efficiency was 85%; after the reactor was drained of sludge, the nitrification effect dropped sharply.

[7] = 40 μg/L, 6° C., after treatment effect stable
[8] = 100 μg/L, 6° C., after treatment effect stable
[9] = 100 μg/L, after raising influent in three stages
[10] = room temperature, 0, 10, 100 μg/L, after 74 cycles
[11] = 100 μg/L, after reactor drained of sludge

Which results are given for CCCC(=O)N[C@H]1CCOC1=O [C4-HSL, N-butanoyl-L-homoserine lactone]?
colonization and growth of biofilm ([1]; 22° C.): inhibited; growth of quorum quenching bacteria ([1]; 22° C. (Comparative Example 8)): promoted; EPS concentration in the biofilm phase [2, 7]: 53.34±3.7 mg/g. VSS; EPS concentration in the sludge phase [2, 7]: 46.12±4.8 mg/g·VSS; intracellular ATP (sludge phase) [2, 7]: 1273.11±5.4 ngATP/mL; microbial activity concentration of a single filler [2, 7]: 20.67±0.22 ngATP/piece; EPS concentration in the activated sludge phase ([2]; 40 μg/L, third stage influent): 127.07±4.5 mg/g·VSS; EPS concentration in the biofilm phase ([2]; 40 μg/L, third stage influent): 113.70±2.59 mg/g. VSS; intracellular ATP (sludge phase) ([2]; 40 μg/L, third stage influent): 1709.78±4.1 ngATP/mL; microbial activity concentration of a single filler ([2]; 40 μg/L, third stage influent): 113.99±0.67 ngATP/mL; EPS concentration in activated sludge phase [2, 8]: 80.62±3.1 mg/g·VSS; EPS concentration in biofilm phase [2, 8]: 96.74±2.8 mg/g·VSS; intracellular ATP (sludge phase) [2, 8]: 2441.01±7.2 ngATP/mL; microbial activity concentration of a single filler [2, 8]: 26.56±0.42 ngATP/piece; EPS concentration in activated sludge phase [2, 9]: 380.38±5.7 mg/g·VSS; EPS concentration in biofilm phase [2, 9]: 235.18±3.5 mg/g·VSS; intracellular ATP (sludge phase) [2, 9]: 5868.42±8.9 ngATP/mL; microbial activity concentration of a single filler [2, 9]: 113.99±0.67 ngATP/mL; abundance of CS gene (TCA cycle) ([3]; 10 μg/L, 10° C.): 0.017%; abundance of complete nitrifying bacterium Nitrospira ([3]; 10 μg/L, 10° C.): 0.100%; abundance of decomposition genes related to QS ([3]; 10 μg/L, 10° C.): 1.92%; abundance of denitrifying bacterium Dechloromonas ([3]; 10 μg/L, 10° C.): 0.246%; abundance of denitrifying bacterium Denitratisoma ([3]; 10 μg/L, 10° C.): 0.189%; abundance of fum gene (TCA cycle) ([3]; 10 μg/L, 10° C.): 0.018%; abundance of regulatory genes related to QS ([3]; 10 μg/L, 10° C.): 2.40%; abundance of sdh gene (TCA cycle) ([3]; 10 μg/L, 10° C.): 0.030%; abundance of transport genes related to QS ([3]; 10 μg/L, 10° C.): 7.75%; abundance of ammonia-oxidizing bacterium MND1 ([3]; 10 μg/L, 10° C. (Example 1)): 0.007%; share of complete nitrification process in nitrogen metabolism ([3]; 10 μg/L, 10° C., metagenomic): 12.53%; abundance of CS gene (TCA cycle) ([3]; 100 μg/L, 10° C.): 0.021%; abundance of Nitrospira ([3]; 100 μg/L, 10° C.): 0.222%; abundance of ammonia-oxidizing bacterium MND1 ([3]; 100 μg/L, 10° C.): 0.005%; abundance of decomposition genes related to QS ([3]; 100 μg/L, 10° C.): 2.50%; abundance of fum gene (TCA cycle) ([3]; 100 μg/L, 10° C.): 0.021%; abundance of heterotrophic nitrifying-aerobic denitrifying bacterium (Microbacterium) ([3]; 100 μg/L, 10° C.): 0.463%; abundance of mdh gene (TCA cycle) ([3]; 100 μg/L, 10° C.): 0.011%; abundance of nitrification gene nxr ([3]; 100 μg/L, 10° C.): 0.027%; abundance of nitrogen removal gene nirK ([3]; 100 μg/L, 10° C.): 0.015%; abundance of regulatory genes related to QS ([3]; 100 μg/L, 10° C.): 2.98%; abundance of sdh gene (TCA cycle) ([3]; 100 μg/L, 10° C.): 0.040%; abundance of transport genes related to QS ([3]; 100 μg/L, 10° C.): 9.22%; share of complete nitrification process in nitrogen metabolism ([3]; 100 μg/L, 10° C.): 13.82%; total abundance of 11 species of denitrifying bacteria ([3]; 100 μg/L, 10° C.): 16.53%; abundance of ammonia-oxidizing bacterium Ellin6067 ([3]; 100 μg/L, 10° C. (Example 2)): 0.393%; relative abundance of Arthrobacter, Nakamurella, Micrococcaceae and Nitrosomonas ([3]; 4° C., after system stable): promoted the increase; relative abundance of TM7a, Nakamurella, Tessaracoccus and Ferruginibacter ([3]; 7° C., after system stabilized): increased; effect on Actinobacteriota and Gemmatimonadota ([3]; room temperature): inhibition at low concentrations and promotion at high concentrations; relative content of Nakamurella (nitrifying bacteria) ([3]; room temperature, high-concentration C4-HSL): 20.79%; relative content of Nakamurella (nitrifying bacteria) ([3]; room temperature, low-concentration C4-HSL): 16.66%; growth and reproduction of Patescibacteria ([3]; room temperature, effect increased with concentration): promote; growth of Proteobacteria and Bacteroidota (phylum level) ([3]; room temperature, stronger at higher concentration): inhibited; average NH4+—N removal efficiency (activated sludge [4]; 10 μg/L, 4° C. (Example 3)): 99.3%; MLSS lower than that of the control group (without C4-HSL added) (activated sludge [4]; 10 μg/L, 7° C.): 22%; average NH4+—N removal efficiency (activated sludge [4]; 10 μg/L, 7° C., after stabilization (Example 3)): 96.9%; MLSS lower than that of the control group (without C4-HSL added) (activated sludge [4]; 100 μg/L, 7° C.): 19%; average NH4+—N removal efficiency (activated sludge [4]; 100 μg/L, 7° C., after stabilization (Example 4)): 96.3%; COD removal efficiency (activated sludge [5]; 10 μg/L added every 2 cycles, 10° C. (Example 1)): 90%; MLSS lower than that of the control group (without C4-HSL added) (activated sludge [5]; 10 μg/L): 40%; TN average effluent concentration (activated sludge [5]; 10 μg/L, 10° C. (Example 1)): 11.40 mg/L; average NH4+—N removal efficiency (activated sludge [5]; 10 μg/L, 10° C. (Example 1)): 99.69%; cycles after which TN removal efficiency reached stability (activated sludge [5]; 10 μg/L, 10° C. (Example 1)): 27 cycles; TN average removal efficiency (activated sludge [5]; 10 μg/L, 10° C., after stability (Example 1)): 64.97%; MLSS of the reactor lower than that of the control group (without C4-HSL) (activated sludge [5]; 10 μg/L, 10° C.): 2%; MLSS lower than that of the control group (without C4-HSL added) (activated sludge [5]; 100 μg/L): 38%; average NH4+—N removal efficiency (activated sludge [5]; 100 μg/L, 4° C. (Example 4)): 98.8%; TN average effluent concentration (activated sludge [5]; 100 μg/L, 10° C.): 12.86 mg/L; cycles after which TN removal efficiency reached stability (activated sludge [5]; 100 μg/L, 10° C.): 27 cycles; COD removal efficiency (activated sludge [5]; 100 μg/L, 10° C. (Example 2)): 90%; average NH4+—N removal efficiency (activated sludge [5]; 100 μg/L, 10° C. (Example 2)): 99.85%; TN average removal efficiency (activated sludge [5]; 100 μg/L, 10° C., after stability): 60.46%; MLSS of the reactor lower than that of the control group (without C4-HSL) (activated sludge [5]; 100 μg/L, 10° C.): 12%; TN removal efficiency and NH4+—N removal efficiency compared with not adding C4-HSL (activated sludge [5]; low temperatures, Example 1 vs Comparative Example 1, FIG. 1 and 2): significantly improved; effect of adding C4-HSL on the nitrogen removal effect (activated sludge [5]; room temperature): little effect; ammonia-nitrogen removal efficiency (activated sludge [5]; [10]): not less than 99%; effluent TN (activated sludge [5]; [10]): not more than 15 mg/L; effluent ammonia-nitrogen concentration (activated sludge [5]; [10]): around 0.1 mg/L; removal efficiency of COD (activated sludge [5]; [10]): not less than 90%; ammonia-nitrogen removal efficiency ([6]; 5th day): 77.43%; effluent ammonia-nitrogen concentration ([6]; 5th day (Example 6)): 5.85 mg/L; ammonia-nitrogen removal efficiency ([6]; 12th day): greater than 99%; COD removal efficiency (biofilm on the filler; 100 μg/L, HRT 18 h, sludge discharged on 18th day (Comparative Example 7)): 85%; ammonia-nitrogen removal efficiency (biofilm on the filler; [11]): 40%; effluent ammonia-nitrogen concentration (biofilm on the filler; [11]): 12 mg/L; growth and enrichment of Bacteroidetes and Actinobacteria on the filler (biofilm on the filler; low temperature conditions): beneficial to promote the growth and enrichment; nitrification effect of a single biofilm system (biofilm on the filler; low temperature, single biofilm system): could not quickly improve
